# Tested on: A549
# Assay: Cytotoxicity against human A549/ATCC cells assessed as effect on cell growth at 10 uM incubated for 48 hrs by sulforhodamine B assay
# Format: cell-based
# Conditions: a549, 48 h
row,SMILES,Activity
1,COc1ccc(N2C(=O)[C@@H]3C/C(=C\N(C)C)C(=O)N3C2N(C)C)cc1 (stereo not given in full),Non-Toxic
2,COc1cc(CN/C=C2\C[C@@H](C(=O)NCc3ccc(Cl)cc3Cl)NC2=O)cc(OC)c1OC,Non-Toxic
3,COc1ccc(CNC(=O)[C@@H]2CCC(=O)N2Cc2ccc(Cl)cc2Cl)c(OC)c1,Non-Toxic

# Tested on: SR
# Assay: Cytotoxicity against human SR cells assessed as effect on cell growth at 10 uM incubated for 48 hrs by sulforhodamine B assay
# Format: cell-based
# Conditions: not given
row,SMILES,Activity
1,COc1ccc(N2C(=O)[C@@H]3C/C(=C\N(C)C)C(=O)N3C2N(C)C)cc1 (stereo not given in full),Non-Toxic
2,COc1cc(CN/C=C2\C[C@@H](C(=O)NCc3ccc(Cl)cc3Cl)NC2=O)cc(OC)c1OC,Non-Toxic
3,COc1ccc(CNC(=O)[C@@H]2CCC(=O)N2Cc2ccc(Cl)cc2Cl)c(OC)c1,Non-Toxic

# Tested on: RPMI-8226
# Assay: Cytotoxicity against human RPMI8226 cells assessed as effect on cell growth at 10 uM incubated for 48 hrs by sulforhodamine B assay
# Format: cell-based
# Conditions: rpmi-8226, 48 h
row,SMILES,Activity
1,COc1ccc(N2C(=O)[C@@H]3C/C(=C\N(C)C)C(=O)N3C2N(C)C)cc1 (stereo not given in full),Non-Toxic
2,COc1cc(CN/C=C2\C[C@@H](C(=O)NCc3ccc(Cl)cc3Cl)NC2=O)cc(OC)c1OC,Non-Toxic
3,COc1ccc(CNC(=O)[C@@H]2CCC(=O)N2Cc2ccc(Cl)cc2Cl)c(OC)c1,Non-Toxic

# Tested on: MOLT-4
# Assay: Cytotoxicity against human MOLT4 cells assessed as effect on cell growth at 10 uM incubated for 48 hrs by sulforhodamine B assay
# Format: cell-based
# Conditions: molt-4, 48 h
row,SMILES,Activity
1,COc1ccc(N2C(=O)[C@@H]3C/C(=C\N(C)C)C(=O)N3C2N(C)C)cc1 (stereo not given in full),Non-Toxic
2,COc1cc(CN/C=C2\C[C@@H](C(=O)NCc3ccc(Cl)cc3Cl)NC2=O)cc(OC)c1OC,Non-Toxic
3,COc1ccc(CNC(=O)[C@@H]2CCC(=O)N2Cc2ccc(Cl)cc2Cl)c(OC)c1,Non-Toxic

# Tested on: EKVX
# Assay: Cytotoxicity against human EKVX cells assessed as effect on cell growth at 10 uM incubated for 48 hrs by sulforhodamine B assay
# Format: cell-based
# Conditions: not given
row,SMILES,Activity
1,COc1ccc(N2C(=O)[C@@H]3C/C(=C\N(C)C)C(=O)N3C2N(C)C)cc1 (stereo not given in full),Non-Toxic
2,COc1cc(CN/C=C2\C[C@@H](C(=O)NCc3ccc(Cl)cc3Cl)NC2=O)cc(OC)c1OC,Non-Toxic
3,COc1ccc(CNC(=O)[C@@H]2CCC(=O)N2Cc2ccc(Cl)cc2Cl)c(OC)c1,Non-Toxic

# Tested on: HL-60(TB)
# Assay: Cytotoxicity against human HL-60(TB) cells assessed as effect on cell growth at 10 uM incubated for 48 hrs by sulforhodamine B assay
# Format: cell-based
# Conditions: not given
row,SMILES,Activity
1,COc1ccc(N2C(=O)[C@@H]3C/C(=C\N(C)C)C(=O)N3C2N(C)C)cc1 (stereo not given in full),Non-Toxic
2,COc1cc(CN/C=C2\C[C@@H](C(=O)NCc3ccc(Cl)cc3Cl)NC2=O)cc(OC)c1OC,Non-Toxic
3,COc1ccc(CNC(=O)[C@@H]2CCC(=O)N2Cc2ccc(Cl)cc2Cl)c(OC)c1,Non-Toxic

# Tested on: NCI-H460
# Assay: Cytotoxicity against human NCI-H460 cells assessed as effect on cell growth at 10 uM incubated for 48 hrs by sulforhodamine B assay
# Format: cell-based
# Conditions: nci-h460, 48 h
row,SMILES,Activity
1,COc1ccc(N2C(=O)[C@@H]3C/C(=C\N(C)C)C(=O)N3C2N(C)C)cc1 (stereo not given in full),Non-Toxic
2,COc1cc(CN/C=C2\C[C@@H](C(=O)NCc3ccc(Cl)cc3Cl)NC2=O)cc(OC)c1OC,Non-Toxic
3,COc1ccc(CNC(=O)[C@@H]2CCC(=O)N2Cc2ccc(Cl)cc2Cl)c(OC)c1,Non-Toxic

# Tested on: HCT-15
# Assay: Cytotoxicity against human HCT15 cells assessed as effect on cell growth at 10 uM incubated for 48 hrs by sulforhodamine B assay
# Format: cell-based
# Conditions: hct-15, 48 h
row,SMILES,Activity
1,COc1ccc(N2C(=O)[C@@H]3C/C(=C\N(C)C)C(=O)N3C2N(C)C)cc1 (stereo not given in full),Non-Toxic
2,COc1cc(CN/C=C2\C[C@@H](C(=O)NCc3ccc(Cl)cc3Cl)NC2=O)cc(OC)c1OC,Non-Toxic
3,COc1ccc(CNC(=O)[C@@H]2CCC(=O)N2Cc2ccc(Cl)cc2Cl)c(OC)c1,Non-Toxic

# Tested on: KM12
# Assay: Cytotoxicity against human KM12 cells assessed as effect on cell growth at 10 uM incubated for 48 hrs by sulforhodamine B assay
# Format: cell-based
# Conditions: km12, 48 h
row,SMILES,Activity
1,COc1ccc(N2C(=O)[C@@H]3C/C(=C\N(C)C)C(=O)N3C2N(C)C)cc1 (stereo not given in full),Non-Toxic
2,COc1cc(CN/C=C2\C[C@@H](C(=O)NCc3ccc(Cl)cc3Cl)NC2=O)cc(OC)c1OC,Non-Toxic
3,COc1ccc(CNC(=O)[C@@H]2CCC(=O)N2Cc2ccc(Cl)cc2Cl)c(OC)c1,Non-Toxic

# Tested on: SW-620
# Assay: Cytotoxicity against human SW620 cells assessed as effect on cell growth at 10 uM incubated for 48 hrs by sulforhodamine B assay
# Format: cell-based
# Conditions: sw-620, 48 h
row,SMILES,Activity
1,COc1ccc(N2C(=O)[C@@H]3C/C(=C\N(C)C)C(=O)N3C2N(C)C)cc1 (stereo not given in full),Non-Toxic
2,COc1cc(CN/C=C2\C[C@@H](C(=O)NCc3ccc(Cl)cc3Cl)NC2=O)cc(OC)c1OC,Non-Toxic
3,COc1ccc(CNC(=O)[C@@H]2CCC(=O)N2Cc2ccc(Cl)cc2Cl)c(OC)c1,Non-Toxic

# Tested on: SF-295
# Assay: Cytotoxicity against human SF295 cells assessed as effect on cell growth at 10 uM incubated for 48 hrs by sulforhodamine B assay
# Format: cell-based
# Conditions: sf-295, 48 h
row,SMILES,Activity
1,COc1ccc(N2C(=O)[C@@H]3C/C(=C\N(C)C)C(=O)N3C2N(C)C)cc1 (stereo not given in full),Non-Toxic
2,COc1cc(CN/C=C2\C[C@@H](C(=O)NCc3ccc(Cl)cc3Cl)NC2=O)cc(OC)c1OC,Non-Toxic
3,COc1ccc(CNC(=O)[C@@H]2CCC(=O)N2Cc2ccc(Cl)cc2Cl)c(OC)c1,Non-Toxic

# Tested on: SF-539
# Assay: Cytotoxicity against human SF539 cells assessed as effect on cell growth at 10 uM incubated for 48 hrs by sulforhodamine B assay
# Format: cell-based
# Conditions: sf-539, 48 h
row,SMILES,Activity
1,COc1ccc(N2C(=O)[C@@H]3C/C(=C\N(C)C)C(=O)N3C2N(C)C)cc1 (stereo not given in full),Non-Toxic
2,COc1cc(CN/C=C2\C[C@@H](C(=O)NCc3ccc(Cl)cc3Cl)NC2=O)cc(OC)c1OC,Non-Toxic
3,COc1ccc(CNC(=O)[C@@H]2CCC(=O)N2Cc2ccc(Cl)cc2Cl)c(OC)c1,Non-Toxic

# Tested on: M14
# Assay: Cytotoxicity against human M14 cells assessed as effect on cell growth at 10 uM incubated for 48 hrs by sulforhodamine B assay
# Format: cell-based
# Conditions: m14, 48 h
row,SMILES,Activity
1,COc1ccc(N2C(=O)[C@@H]3C/C(=C\N(C)C)C(=O)N3C2N(C)C)cc1 (stereo not given in full),Non-Toxic
2,COc1cc(CN/C=C2\C[C@@H](C(=O)NCc3ccc(Cl)cc3Cl)NC2=O)cc(OC)c1OC,Non-Toxic
3,COc1ccc(CNC(=O)[C@@H]2CCC(=O)N2Cc2ccc(Cl)cc2Cl)c(OC)c1,Non-Toxic

# Tested on: OVCAR-5
# Assay: Cytotoxicity against human OVCAR5 cells assessed as effect on cell growth at 10 uM incubated for 48 hrs by sulforhodamine B assay
# Format: cell-based
# Conditions: ovcar-5, 48 h
row,SMILES,Activity
1,COc1ccc(N2C(=O)[C@@H]3C/C(=C\N(C)C)C(=O)N3C2N(C)C)cc1 (stereo not given in full),Non-Toxic
2,COc1cc(CN/C=C2\C[C@@H](C(=O)NCc3ccc(Cl)cc3Cl)NC2=O)cc(OC)c1OC,Non-Toxic
3,COc1ccc(CNC(=O)[C@@H]2CCC(=O)N2Cc2ccc(Cl)cc2Cl)c(OC)c1,Non-Toxic

# Tested on: SK-OV-3
# Assay: Cytotoxicity against human SKOV3 cells assessed as effect on cell growth at 10 uM incubated for 48 hrs by sulforhodamine B assay
# Format: cell-based
# Conditions: sk-ov-3, 48 h
row,SMILES,Activity
1,COc1ccc(N2C(=O)[C@@H]3C/C(=C\N(C)C)C(=O)N3C2N(C)C)cc1 (stereo not given in full),Non-Toxic
2,COc1cc(CN/C=C2\C[C@@H](C(=O)NCc3ccc(Cl)cc3Cl)NC2=O)cc(OC)c1OC,Non-Toxic
3,COc1ccc(CNC(=O)[C@@H]2CCC(=O)N2Cc2ccc(Cl)cc2Cl)c(OC)c1,Non-Toxic

# Tested on: 786-0
# Assay: Cytotoxicity against human 786-0 cells assessed as effect on cell growth at 10 uM incubated for 48 hrs by sulforhodamine B assay
# Format: cell-based
# Conditions: 786-0, 48 h
row,SMILES,Activity
1,COc1ccc(N2C(=O)[C@@H]3C/C(=C\N(C)C)C(=O)N3C2N(C)C)cc1 (stereo not given in full),Non-Toxic
2,COc1cc(CN/C=C2\C[C@@H](C(=O)NCc3ccc(Cl)cc3Cl)NC2=O)cc(OC)c1OC,Non-Toxic
3,COc1ccc(CNC(=O)[C@@H]2CCC(=O)N2Cc2ccc(Cl)cc2Cl)c(OC)c1,Non-Toxic

# Tested on: A498
# Assay: Cytotoxicity against human A498 cells assessed as effect on cell growth at 10 uM incubated for 48 hrs by sulforhodamine B assay
# Format: cell-based
# Conditions: a498, 48 h
row,SMILES,Activity
1,COc1ccc(N2C(=O)[C@@H]3C/C(=C\N(C)C)C(=O)N3C2N(C)C)cc1 (stereo not given in full),Non-Toxic
2,COc1cc(CN/C=C2\C[C@@H](C(=O)NCc3ccc(Cl)cc3Cl)NC2=O)cc(OC)c1OC,Non-Toxic
3,COc1ccc(CNC(=O)[C@@H]2CCC(=O)N2Cc2ccc(Cl)cc2Cl)c(OC)c1,Non-Toxic

# Tested on: ACHN
# Assay: Cytotoxicity against human ACHN cells assessed as effect on cell growth at 10 uM incubated for 48 hrs by sulforhodamine B assay
# Format: cell-based
# Conditions: not given
row,SMILES,Activity
1,COc1ccc(N2C(=O)[C@@H]3C/C(=C\N(C)C)C(=O)N3C2N(C)C)cc1 (stereo not given in full),Non-Toxic
2,COc1cc(CN/C=C2\C[C@@H](C(=O)NCc3ccc(Cl)cc3Cl)NC2=O)cc(OC)c1OC,Non-Toxic
3,COc1ccc(CNC(=O)[C@@H]2CCC(=O)N2Cc2ccc(Cl)cc2Cl)c(OC)c1,Non-Toxic

# Tested on: UO-31
# Assay: Cytotoxicity against human UO31 cells assessed as effect on cell growth at 10 uM incubated for 48 hrs by sulforhodamine B assay
# Format: cell-based
# Conditions: uo-31, 48 h
row,SMILES,Activity
1,COc1ccc(N2C(=O)[C@@H]3C/C(=C\N(C)C)C(=O)N3C2N(C)C)cc1 (stereo not given in full),Non-Toxic
2,COc1cc(CN/C=C2\C[C@@H](C(=O)NCc3ccc(Cl)cc3Cl)NC2=O)cc(OC)c1OC,Non-Toxic
3,COc1ccc(CNC(=O)[C@@H]2CCC(=O)N2Cc2ccc(Cl)cc2Cl)c(OC)c1,Non-Toxic

# Tested on: DU-145
# Assay: Cytotoxicity against human DU145 cells assessed as effect on cell growth at 10 uM incubated for 48 hrs by sulforhodamine B assay
# Format: cell-based
# Conditions: du-145, 48 h
row,SMILES,Activity
1,COc1ccc(N2C(=O)[C@@H]3C/C(=C\N(C)C)C(=O)N3C2N(C)C)cc1 (stereo not given in full),Non-Toxic
2,COc1cc(CN/C=C2\C[C@@H](C(=O)NCc3ccc(Cl)cc3Cl)NC2=O)cc(OC)c1OC,Non-Toxic
3,COc1ccc(CNC(=O)[C@@H]2CCC(=O)N2Cc2ccc(Cl)cc2Cl)c(OC)c1,Non-Toxic
